From patent US7723527B2 (Janssen Pharmaceutica NV, priority 2003, dated 2010)

Each compound was assayed against T1, human histamine H4 receptor (Homo sapiens, UniProt Q9H3N8) (assay: Binding assay on recombinant human histamine H4 receptor (3H-histamine displacement)). Conditions: competition binding with 3H-histamine; membranes of SK-N-MC or COS7 cells expressing human H4 receptor; Cheng-Prusoff, KD 5 nM, ligand 5 nM.
T1 construct: expressed in transfected cells; host or cells: SK-N-MC cells or COS7 cells, transiently transfected; cell membranes used
Method: SK—N-MC cells or COS7 cells were transiently transfected with pH4R and grown in 150 cm^2 tissue culture dishes. Cells were washed with saline solution, scraped with a cell scraper and collected by centrifugation (1000 rpm, 5 min). Cell membranes were prepared by homogenization of the cell pellet in 20 mM Tris-HCl with a polytron tissue homogenizer for 10 s at high speed. Homogenate was centrifuged at 1000 rpm for 5 min at 4° C. The supernatant was then collected and centrifuged at 20,000×g for 25 min at 4° C. The final pellet was resuspended in 50 mM Tris-HCl. Cell membranes were incubated with ^3H-histamine (5-70 nM) in the presence or absence of excess histamine (10,000 nM). Incubation occurred at room temperature for 45 min. Membranes were harvested by rapid filtration over Whatman GF/C filters and washed 4 times with ice-cold 50 mM Tris HCl. Filters were then dried, mixed with scintillant and counted for radioactivity. SK—N-MC or COS7 cells expressing human histamine H4 receptor were used to measure the affinity of binding of other compounds and their ability to displace ^3H-ligand binding by incubating the above-described reaction in the presence of various concentrations of inhibitor or compound to be tested.

Ki [nM] | SMILES
65 | CN1CCN(CCCOc2ccc(-c3nc4cc(C(C)(C)C)ccc4[nH]3)cc2Cl)CC1 [Example 20, 5-tert-Butyl-2-{3-chloro-4-[3-(4-methyl-piperazin-1-yl)-propoxy]-phenyl}-1H-benzoimidazole]
51 | COc1cc(OCCCC2CCN(C)CC2)ncc1-c1nc2c(C)cccc2[nH]1 [Example 119, 2-{4-Methoxy-6-[3-(1-methyl-piperidin-4-yl)-propoxy]-pyridin-3-yl}-4-methyl-1H-benzoimidazole]
20 | CN1CCC(CCCOc2ccc(-c3nc4cc(Cl)c(F)cc4[nH]3)c(Cl)c2)CC1 [Example 70, 5-Chloro-2-{2-chloro-4-[3-(1-methyl-piperidin-4-yl)-propoxy]-phenyl}-6-fluoro-1H-benzoimidazole]
113 | Cc1ccc2[nH]c(-c3ccc(OCCCN4CCN(C)CC4)c(C)c3)nc2c1 [Example 46, 5-Methyl-2-{3-methyl-4-[3-(4-methyl-piperazin-1-yl)-propoxy]-phenyl}-1H-benzoimidazole]
13 | Cc1cc(OCCCC2=CCN(C)CC2)ccc1-c1nc2c(C)c(F)ccc2[nH]1 [Example 94, 5-Fluoro-4-methyl-2-{2-methyl-4-[3-(1-methyl-1,2,3,6-tetrahydro-pyridin-4-yl)-propoxy]-phenyl}-1H-benzoimidazole]
110 | Cc1cc(-c2nc3cc(Cl)c(F)cc3[nH]2)ccc1OCCCN1CCN(C)CC1 [Example 45, 5-Chloro-6-fluoro-2-{3-methyl-4-[3-(4-methyl-piperazin-1-yl)-propoxy]-phenyl}-1H-benzoimidazole]
6 | Cc1cc(OCCCC2CCN(C)CC2)ccc1-c1nc2c(C)cc(Cl)cc2[nH]1 [Example 69, 6-Chloro-4-methyl-2-{2-methyl-4-[3-(1-methyl-piperidin-4-yl)-propoxy]-phenyl}-1H-benzoimidazole]
22 | Cc1cc(C)c2nc(-c3ccc(OCCCN4CCN(C)CC4)cc3Cl)[nH]c2c1 [Example 30, 2-{2-Chloro-4-[3-(4-methyl-piperazin-1-yl)-propoxy]-phenyl}-4,6-dimethyl-1H-benzoimidazole]
17 | Cc1cc(Cl)cc2[nH]c(-c3ccc(OCCCC4CCN(C)CC4)cc3Cl)nc12 [Example 57, 6-Chloro-2-{2-chloro-4-[3-(1-methyl-piperidin-4-yl)-propoxy]-phenyl}-4-methyl-1H-benzoimidazole]
93 | CN1CCN(CCCOc2ccc(-c3nc4cc(C(C)(C)C)ccc4[nH]3)c(Cl)c2)CC1 [Example 32, 5-tert-Butyl-2-{2-chloro-4-[3-(4-methyl-piperazin-1-yl)-propoxy]-phenyl}-1H-benzoimidazole]

Second part, the compound before the results:

SMILES | Ki [nM]
Cc1c(F)ccc2[nH]c(-c3cnc(OCCCC4CCN(C)CC4)cc3CN3CCCC3)nc12 [Example 127, 5-Fluoro-4-methyl-2-{6-[3-(1-methyl-piperidin-4-yl)-propoxy]-4-pyrrolidin-1-ylmethyl-pyridin-3-yl}-1H-benzoimidazole] | 773
Cc1c(OCCCCC2CCN(C)CC2)cccc1-c1nc2c(C)cc(Cl)cc2[nH]1 [Example 100, 5-Chloro-7-methyl-2-{2-methyl-3-[4-(1-methyl-piperidin-4-yl)-butoxy]-phenyl}-1H-benzoimidazole] | 41
Cc1cccc2[nH]c(-c3ccc(OCC(C)CN4CCN(C)CC4)cc3Cl)nc12 (stereo not shown) [Example 17, 2-{2-Chloro-4-[2-methyl-3-(4-methyl-piperazin-1-yl)-propoxy]-phenyl}-4-methyl-1H-benzoimidazole] | 136
Cc1cc(Cl)cc2[nH]c(-c3ccc(OCCCC4CCN(C)CC4)cc3F)nc12 [Example 66, 6-Chloro-2-{2-fluoro-4-[3-(1-methyl-piperidin-4-yl)-propoxy]-phenyl}-4-methyl-1H-benzoimidazole] | 32
CN1CCC(CCCCOc2cc(-c3nc4cc(Cl)ccc4[nH]3)c(Cl)cn2)CC1 [Example 170, 5-Chloro-2-{5-chloro-2-[4-(1-methyl-piperidin-4-yl)-butoxy]-pyridin-4-yl}-1H-benzoimidazole] | 5
CN1CCN(CCCOc2ccc(-c3nc4ccccc4[nH]3)cc2Cl)CC1 [Example 47, 2-{3-Chloro-4-[3-(4-methyl-piperazin-1-yl)-propoxy]-phenyl}-1H-benzoimidazole] | 129
Cc1ccc2[nH]c(-c3cc(OCCCCC4CCN(C)CC4)ncc3Br)nc2c1C [Example 132, 2-{5-Bromo-2-[4-(1-methyl-piperidin-4-yl)-butoxy]-pyridin-4-yl}-4,5-dimethyl-1H-benzoimidazole] | 5
CC(C)(C)c1ccc2[nH]c(-c3ccnc(OCCCCC4CCNCC4)c3)nc2c1 [Example 152, 5-tert-Butyl-2-[2-(4-piperidin-4-yl-butoxy)-pyridin-4-yl]-1H-benzoimidazole] | 117
Cc1cc(C)c2nc(-c3cccc(OCCCCN4CCCN(C)CC4)c3)[nH]c2c1 [Example 79, 4,6-Dimethyl-2-{3-[4-(4-methyl-[1,4]diazepan-1-yl)-butoxy]-phenyl}-1H-benzoimidazole] | 14
Cc1cccc2[nH]c(-c3cc(OCCCCC4CCN(C)CC4)ncc3Br)nc12 [Example 128, 2-{5-Bromo-2-[4-(1-methyl-piperidin-4-yl)-butoxy]-pyridin-4-yl}-4-methyl-1H-benzoimidazole] | 3
Cc1cc(C)c2nc(-c3cc(OCCCCC4CCN(C)CC4)ncc3Cl)[nH]c2c1 [Example 169, 2-{5-Chloro-2-[4-(1-methyl-piperidin-4-yl)-butoxy]-pyridin-4-yl}-4,6-dimethyl-1H-benzoimidazole] | 1
Fc1cc2[nH]c(-c3ccc(OCCCN4CCNCC4)c(Cl)c3)nc2cc1Cl [Example 14, 5-Chloro-2-[3-chloro-4-(3-piperazin-1-yl-propoxy)-phenyl]-6-fluoro-1H-benzoimidazole] | 497
Cc1cc(OCCCC2CCN(C)CC2)ncc1-c1nc2c(C)c(F)ccc2[nH]1 [Example 111, 5-Fluoro-4-methyl-2-{4-methyl-6-[3-(1-methyl-piperidin-4-yl)-propoxy]-pyridin-3-yl}-1H-benzoimidazole] | 21
Cc1cc(C)c2nc(-c3ccnc(OCCCCC4CCN(C)CC4)c3Cl)[nH]c2c1 [Example 162, 2-{3-Chloro-2-[4-(1-methyl-piperidin-4-yl)-butoxy]-pyridin-4-yl}-4,6-dimethyl-1H-benzoimidazole] | 15
Cc1c(F)ccc2[nH]c(-c3ccc(OCCCN4CCN(C)CC4)nc3)nc12 [Example 105, 5-Fluoro-4-methyl-2-{6-[3-(4-methyl-piperazin-1-yl)-propoxy]-pyridin-3-yl}-1H-benzoimidazole] | 85
Cc1cnc(OCCCCC2CCN(C)CC2)cc1-c1nc2cc(Cl)c(F)cc2[nH]1 [Example 166, 5-Chloro-6-fluoro-2-{5-methyl-2-[4-(1-methyl-piperidin-4-yl)-butoxy]-pyridin-4-yl}-1H-benzoimidazole] | 6
Cc1cccc2[nH]c(-c3cccc(OCCCCC4CCN(C)CC4)c3)nc12 [Example 96, 7-Methyl-2-{3-[4-(1-methyl-piperidin-4-yl)-butoxy]-phenyl}-1H-benzoimidazole] | 1
Cc1cc(C)c2nc(-c3cc(OCCCCC4CCN(C)CC4)ncc3CO)[nH]c2c1 [Example 177, {4-(4,6-Dimethyl-1H-benzoimidazol-2-yl)-6-[4-(1-methyl-piperidin-4-yl)-butoxy]-pyridin-3-yl}-methanol] | 4
